Source: US4367339A, “Substituted N-nitroaniline compounds and inorganic and organic salts thereof useful for enhancing auxiliary branching, canopy flowering and crop yield of plant and as lodging inhibitors therefor” (priority 1980, dated 1983)
Structures can show the parent of a compound that is named as a salt.

Tested on: barley (Hordeum vulgare, var. Georgie)
Assay: Antilodging effects on barley
Type: in vivo
Design: key to Tiller formation / Stem stiffness: 5 = no increase over controls, 3 = moderate significant increase
Details: for Stem stiffness / Tiller formation: control 5; for Weight Dry: control 5.2; for Weight Fresh: control 49.1; for Height: control 53.1; for Phytotoxicity: three weeks after spraying
Experimental: In this experiment the procedure of Example 7 is repeated excepting that the crop used was barley (Hordeum vulgare, var. Georgie; European lodging prone variety). The plants are treated at the 3-4 leaf stage. Plants are watered prior to treatment and then sprayed to provide the kg/ha rate of test compound desired. After spraying the plants are placed on greenhouse benches and watered and fertilized in accordance with normal greenhouse procedures.
Three weeks after spraying the plants are measured and harvested. All treatments are replicated six times and companions are made against untreated controls.
The following rating system is used:
5=No increase over controls
3=Moderate, significant increase over controls.

SMILES | Stem stiffness (rate 0.25 kg/ha) | Tiller formation (rate 0.25 kg/ha) | Weight Dry (rate 0.25 kg/ha) [g] | Weight Fresh (rate 0.25 kg/ha) [g] | Height (rate 0.25 kg/ha) [cm] | Phytotoxicity (rate 0.25 kg/ha) | Stem stiffness (rate 0.5 kg/ha) | Tiller formation (rate 0.5 kg/ha) | Weight Dry (rate 0.5 kg/ha) [g] | Weight Fresh (rate 0.5 kg/ha) [g] | Height (rate 0.5 kg/ha) [cm] | Phytotoxicity (rate 0.5 kg/ha) | Stem stiffness (rate 1.0 kg/ha) | Tiller formation (rate 1.0 kg/ha) | Weight Dry (rate 1.0 kg/ha) [g] | Weight Fresh (rate 1.0 kg/ha) [g] | Height (rate 1.0 kg/ha) [cm] | Phytotoxicity (rate 1.0 kg/ha)
Brn1c(-c2ccccc2)cc(-c2ccccc2)[n+]1Br.O=[N+]([O-])[N-]c1c(Br)cccc1Br [1,2-Dibromo-3,5-diphenylpyrazolium salt with 2,6-dibromo-N--aci-nitroaniline] | 4 | 5 (No increase over controls) | 6.9 | 59.2 | 58.2 | 5 (No increase over controls) | 4 | 5 (No increase over controls) | 6.7 | 60.7 | 53.3 | 5 (No increase over controls) | 3 (Moderate, significant increase over controls.) | 3 (Moderate, significant increase over controls.) | 5.9 | 60.4 | 52.3 | 5 (No increase over controls)
Cn1c(-c2ccccc2)cc(-c2ccccc2)[n+]1C.O=[N+]([O-])[N-]c1cccc(Cl)c1Cl [1,2-Dimethyl-3,5-diphenylpyrazolium salt with 2,3-dichloro-N--aci-nitroaniline] | 5 (No increase over controls) | 5 (No increase over controls) |  | 51.2 | 56.3 | 5 (No increase over controls) | 5 (No increase over controls) | 5 (No increase over controls) |  | 52.6 | 54.7 | 5 (No increase over controls) | 5 (No increase over controls) | 5 (No increase over controls) | 6.0 | 57.3 | 55.5 | 5 (No increase over controls)
Cn1c(-c2ccccc2)cc(-c2ccccc2)[n+]1C.O=[N+]([O-])[N-]c1ccccc1Br [1,2-Dimethyl-3,5-diphenylpyrazolium salt with 2-Bromo-N--aci-nitroaniline] | 4 | 4 |  | 51.0 | 52.5 | 5 (No increase over controls) | 5 (No increase over controls) | 5 (No increase over controls) |  | 53.5 | 50.6 | 5 (No increase over controls) | 5 (No increase over controls) | 5 (No increase over controls) |  | 47.4 | 50.0 | 5 (No increase over controls)
O=[N+]([O-])Nc1ccc(Br)cc1Br [2,4-Dibromo-N--nitroaniline] | 3 (Moderate, significant increase over controls.) | 4 | 7.8 | 63.5 | 54.7 | 5 (No increase over controls) | 5 (No increase over controls) | 5 (No increase over controls) | 6.7 | 56.3 | 56.0 | 5 (No increase over controls) | 5 (No increase over controls) | 5 (No increase over controls) |  | 46.4 | 53.3 | 5 (No increase over controls)
O=[N+]([O-])N(F)c1c(Br)cccc1Br [2,6-Dibromo-N--fluoro-N--nitroaniline] | 4 | 4 | 6.0 | 57.8 | 52.0 | 5 (No increase over controls) | 5 (No increase over controls) | 5 (No increase over controls) |  | 52.6 | 51.0 | 5 (No increase over controls) | 5 (No increase over controls) | 4 |  | 49.2 | 45.2 | 5 (No increase over controls)
O=[N+]([O-])Nc1c(Br)cccc1Br [2,6-Dibromo-N--nitroaniline] | 4 | 4 | 6.2 | 58.3 | 50.5 | 5 (No increase over controls) | 4 | 3 (Moderate, significant increase over controls.) | 6.9 | 67.5 | 53.0 | 5 (No increase over controls) | 4 | 3 (Moderate, significant increase over controls.) | 5.4 | 55.8 | 48.3 | 5 (No increase over controls)
N#Cc1ccc(N[N+](=O)[O-])c(Br)c1 [2-Bromo-4-cyano-N--nitroaniline] | 5 (No increase over controls) | 4 | 7.4 | 62.2 | 53.0 | 5 (No increase over controls) | 5 (No increase over controls) | 4 | 7.0 | 59.2 | 53.3 | 5 (No increase over controls) | 5 (No increase over controls) | 5 (No increase over controls) | 7.0 | 60.9 | 53.2 | 5 (No increase over controls)
CCc1cccc(C(C)C)c1N[N+](=O)[O-] [2-Ethyl-6-isopropyl-N--nitroaniline] | 4 | 4 |  | 50.5 | 47.7 | 5 (No increase over controls) | 4 | 3 (Moderate, significant increase over controls.) | 5.9 | 59.3 | 48.7 | 5 (No increase over controls) | 4 | 4 | 5.4 | 56.5 | 51.0 | 5 (No increase over controls)
Cc1cc(C)c(N[N+](=O)[O-])c(I)c1 [2-Iodo-4,6-dimethyl-N--nitroaniline] | 5 (No increase over controls) | 5 (No increase over controls) |  | 54.1 | 52.7 | 5 (No increase over controls) | 5 (No increase over controls) | 5 (No increase over controls) |  | 52.7 | 52.5 | 5 (No increase over controls) | 5 (No increase over controls) | 5 (No increase over controls) | 6.2 | 58.0 | 53.5 | 5 (No increase over controls)
O=[N+]([O-])Nc1c(Br)cccc1Br [Sodium salt of 2,6-dibromo-N--nitroaniline] | 4 | 4 |  | 55.6 | 50.2 | 5 (No increase over controls) | 4 | 3 (Moderate, significant increase over controls.) | 6.4 | 57.6 | 47.2 | 5 (No increase over controls) | 3 (Moderate, significant increase over controls.) | 3 (Moderate, significant increase over controls.) |  | 55.5 | 47.0 | 5 (No increase over controls)
O=[N+]([O-])Nc1cccc(Cl)c1Cl [Sodium salt with 2,3-dichloro-N--nitroaniline] | 5 (No increase over controls) | 5 (No increase over controls) | 8.2 | 60.9 | 53.3 | 5 (No increase over controls) | 5 (No increase over controls) | 5 (No increase over controls) | 7.1 | 58.7 | 53.8 | 5 (No increase over controls) | 5 (No increase over controls) | 5 (No increase over controls) | 6.0 | 57.5 | 52.2 | 5 (No increase over controls)
